± gives the expanded uncertainty stated by the source.
Details: for viscosity / mass density: 101.33 kPa, Liquid; for viscosity: Falling or rolling sphere viscometry; for mass density: Vibrating tube method; for surface tension liquid-gas: Pendant drop shape

In the case of CCn1cc[n+](C)c1.N#C[S-] [1-ethyl-3-methylimidazolium thiocyanate], the viscosity (293.15 K) is reported as 28.27 ± 0.67 mPa·s, the mass density (293.15 K) is reported as 1120.02 ± 1.1 kg/m3 and the surface tension liquid-gas (298.15 K) is reported as 54.1 ± 0.8 mN/m. The viscosity (298.15 K) was 23.79 ± 0.56 mPa·s, the mass density (298.15 K) was 1116.97 ± 1.1 kg/m3 and the surface tension liquid-gas (303.15 K) was 53.6 ± 0.8 mN/m. It also gave a viscosity (303.15 K) of 20.25 ± 0.48 mPa·s, a mass density (303.15 K) of 1113.91 ± 1.1 kg/m3 and a surface tension liquid-gas (313.15 K) of 52.9 ± 0.8 mN/m. It also gave a viscosity (313.15 K) of 15.13 ± 0.36 mPa·s, a mass density (313.15 K) of 1107.95 ± 1.1 kg/m3 and a surface tension liquid-gas (323.15 K) of 52.1 ± 0.8 mN/m. The viscosity (323.15 K) was 11.73 ± 0.28 mPa·s, the mass density (323.15 K) was 1101.84 ± 1.1 kg/m3 and the viscosity (333.15 K) was 9.36 ± 0.22 mPa·s. The mass density (333.15 K) was 1095.89 ± 1 kg/m3, the viscosity (343.15 K) was 7.65 ± 0.18 mPa·s and the mass density (343.15 K) was 1089.98 ± 1 kg/m3. The viscosity (353.15 K) was 6.38 ± 0.15 mPa·s and the mass density (353.15 K) was 1084.12 ± 1 kg/m3.

Compound CCCCn1cc[n+](C)c1.N#C[S-] [1-butyl-3-methylimidazolium thiocyanate] has a viscosity (293.15 K) of 76.08 ± 2 mPa·s, a mass density (293.15 K) of 1073.99 ± 0.99 kg/m3 and a surface tension liquid-gas (298.15 K) of 47 ± 0.7 mN/m. For the same compound, the viscosity (298.15 K) was 59.81 ± 1.4 mPa·s, the mass density (298.15 K) was 1071.04 ± 0.98 kg/m3 and the surface tension liquid-gas (303.15 K) was 46.6 ± 0.7 mN/m. For the same compound, the viscosity (303.15 K) was 47.84 ± 1.1 mPa·s, the mass density (303.15 K) was 1068.08 ± 0.98 kg/m3 and the surface tension liquid-gas (313.15 K) was 45.7 ± 0.7 mN/m. For the same compound, the viscosity (313.15 K) was 32.2 ± 0.77 mPa·s, the mass density (313.15 K) was 1062.21 ± 0.97 kg/m3 and the surface tension liquid-gas (323.15 K) was 44.8 ± 0.7 mN/m. It also gave a viscosity (323.15 K) of 22.97 ± 0.54 mPa·s, a mass density (323.15 K) of 1056.39 ± 0.95 kg/m3 and a viscosity (333.15 K) of 17.12 ± 0.4 mPa·s. It also gave a mass density (333.15 K) of 1050.61 ± 0.94 kg/m3, a viscosity (343.15 K) of 13.2 ± 0.31 mPa·s and a mass density (343.15 K) of 1044.87 ± 0.93 kg/m3. It also gave a viscosity (353.15 K) of 10.5 ± 0.25 mPa·s and a mass density (353.15 K) of 1039.17 ± 0.92 kg/m3.
